Measurements taken from patent publication US8188284B2, “2-aminoquinolines” (Hoffman-La Roche Inc., priority 2008, dated 2012).

Each compound was assayed against T1, recombinant human 5-HT5A receptor (Homo sapiens, UniProt P47898) (assay: [3H]LSD radioligand binding assay). Details: not given.
T1 construct: expressed in transfected cells; host or cells: HEK-EBNA (Human Embryonic Kidney-EBNA) cells, transient cDNA expression, membranes
T1 sequence (P47898 whole entry): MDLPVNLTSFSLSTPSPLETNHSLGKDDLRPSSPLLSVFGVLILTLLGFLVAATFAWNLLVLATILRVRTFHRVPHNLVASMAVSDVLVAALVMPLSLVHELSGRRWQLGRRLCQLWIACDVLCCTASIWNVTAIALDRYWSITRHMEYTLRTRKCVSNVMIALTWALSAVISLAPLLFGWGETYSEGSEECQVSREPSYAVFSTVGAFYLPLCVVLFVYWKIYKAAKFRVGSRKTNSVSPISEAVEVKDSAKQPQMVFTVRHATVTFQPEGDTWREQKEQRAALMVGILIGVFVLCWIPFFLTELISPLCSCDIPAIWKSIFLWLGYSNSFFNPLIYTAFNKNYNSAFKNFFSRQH
Protocol: A [^3H]LSD radioligand binding assay was used to determine the affinity of the compounds for the recombinant human 5-HT5A receptor, in membranes from transiently (cDNA) expressed 5-HT5A receptors in Human Embryonic Kidney-EBNA (HEK-EBNA) cells. Assay buffer consisted of Tris (50 mM) buffer containing 1 mM EGTA, 10 mM MgCl2 (pH 7.4) and 10 μM pargyline. The binding assay was carried out in 96-well-plates in the presence of [^3H]LSD (approximately 1 nM), approximately 2 μg/well of membrane protein, and 0.5 mg of Ysi-poly-1-lysine SPA beads in a final volume of 200 μl of buffer. Non-specific binding was defined using methiothepin 2 μM. Compounds were tested at 10 concentrations. All assays were conducted in duplicate and repeated at least two times. Assay plates were incubated for 120 min at room temperature before centrifugation. Bound ligand was determined using a Packard Topcount scintillation counter. IC50 values were calculated using a non-linear curve fitting program and Ki values calculated using the Cheng-Prussoff equation.
Compound `COc1ccc(OC(=O)Nc2ccc3nc(N[C@@H]4CCc5ccccc54)ccc3c2)cc1` [Example 47, [2-((R)-Indan-1-ylamino)-quinolin-6-yl]-carbamic acid 4-methoxy-phenyl ester] has a Ki of 20 nM.

Same assay, conditions: [3H]LSD (approximately 1 nM), membranes from HEK-EBNA cells transiently expressing 5-HT5A receptors; Ki calculated from IC50 using the Cheng-Prussoff equation; read-out: Ki/nM 5-HT5A
Work on `COc1cccc2c1C(Nc1ccc3cc(Nc4cccc(C)n4)ccc3n1)CC2` (racemic) [Example 94, rac-N^2-(7-Methoxy-indan-1-yl)-N^6-(6-methyl-pyridin-2-yl)-quinoline-2,6-diamine] yielded a Ki of 3.4 nM. With `COc1cccc2c1C(Nc1ccc3cc(NC(=O)Cn4ccnc4)ccc3n1)CC2` (racemic) [Example 100, rac-2-Imidazol-1-yl-N-[2-(7-methoxy-indan-1-ylamino)-quinolin-6-yl]-acetamide] the Ki was 21.2 nM. `Fc1ccc2c(c1)CCC2Nc1ccc2cc(Nc3cccc(C(F)(F)F)n3)ccc2n1` (racemic) [Example 102, rac-N^2-(5-Fluoro-indan-1-yl)-N^6-(6-trifluoromethyl-pyridin-2-yl)-quinoline-2,6-diamine] showed a Ki of 19.1 nM. With `Cc1cccc(Nc2ccc3nc(NC4CCc5cc(F)ccc54)ccc3c2)n1` (racemic) [Example 105, rac-N^2-(5-Fluoro-indan-1-yl)-N^6-(6-methyl-pyridin-2-yl)-quinoline-2,6-diamine] the Ki was 6.8 nM. Compound `COc1cccc2c1C(Nc1ccc3cc(Nc4cccc(C)n4)ccc3n1)CO2` (racemic) [Example 112, rac-N^2-(4-Methoxy-2,3-dihydro-benzofuran-3-yl)-N^6-(6-methyl-pyridin-2-yl)-quinoline-2,6-diamine] has a Ki of 8 nM. For `COc1cccc2c1C(Nc1ccc3cc(NC(=O)Cc4ccncc4)ccc3n1)CC2` (racemic) [Example 115, rac-N-[2-(7-Methoxy-indan-1-ylamino)-quinolin-6-yl]-2-pyridin-4-yl-acetamide], the Ki was 15 nM. `COc1cccc(COc2ccc3nc(N[C@@H]4CCc5ccccc54)ccc3c2)c1` [Example 2, (R)-Indan-1-yl-[6-(3-methoxy-benzyloxy)-quinolin-2-yl]-amine] was tested, and the Ki was 92.4 nM. For `c1cncc(CNc2ccc3nc(N[C@@H]4CCc5ccccc54)ccc3c2)c1` [Example 4, N^2—(R)-Indan-1-yl-N^6-pyridin-3-ylmethyl-quinoline-2,6-diamine], the Ki was 9.8 nM. `c1ccc2c(c1)CC[C@H]2Nc1ccc2cc(NCCCn3ccnc3)ccc2n1` [Example 9, N^6-(3-Imidazol-1-yl-propyl)-N^2—(R)-indan-1-yl-quinoline-2,6-diamine] showed a Ki of 176 nM. `c1ccc2c(c1)CC[C@H]2Nc1ccc2cc(NCc3cccc4[nH]ccc34)ccc2n1` [Example 11, N^2—(R)-Indan-1-yl-N^6-(1-H-indol-4-ylmethyl)-quinoline-2,6-diamine] was tested, and the Ki was 9.4 nM. In the case of `c1ccc2c(c1)CC[C@H]2Nc1ccc2cc(NCc3ncc[nH]3)ccc2n1` [Example 12, N^6-(1H-Imidazol-2-ylmethyl)-N^2—(R)-indan-1-yl-quinoline-2,6-diamine], the Ki is reported as 16.6 nM. `c1ccc2c(c1)CC[C@H]2Nc1ccc2cc(NCc3nccs3)ccc2n1` [Example 13, N^2—(R)-Indan-1-yl-N^6-thiazol-2-ylmethyl-quinoline-2,6-diamine] gave a Ki of 7.6 nM. `O=S(=O)(Nc1ccc2nc(N[C@@H]3CCc4ccccc43)ccc2c1)c1ccc(F)cc1` [Example 14, 4-Fluoro-N-[2-((R)-indan-1-ylamino)-quinolin-6-yl]-benzenesulfonamide] gave a Ki of 36.4 nM. With `c1ccc2c(c1)CC[C@H]2Nc1ccc2cc(NCc3ccncc3)ccc2n1` [Example 15, N^2—(R)-Indan-1-yl-N^6-pyridin-4-ylmethyl-quinoline-2,6-diamine] the Ki was 33.7 nM. `O=C(Nc1ccccc1)Nc1ccc2nc(N[C@@H]3CCc4ccccc43)ccc2c1` [Example 16, 1-[2-((R)-Indan-1-ylamino)-quinolin-6-yl]-3-phenyl-urea] gave a Ki of 4.9 nM. Compound `Cc1nc[nH]c1CNc1ccc2nc(N[C@@H]3CCc4ccccc43)ccc2c1` [Example 17, N^2—(R)-Indan-1-yl-N^6-(5-methyl-3-H-imidazol-4-ylmethyl)-quinoline-2,6-diamine] has a Ki of 7.6 nM. In the case of `c1ccc2c(c1)CC[C@H]2Nc1ccc2cc(NCc3cc[nH]n3)ccc2n1` [Example 18, N^2—(R)-Indan-1-yl-N^6-(1-H-pyrazol-3-ylmethyl)-quinoline-2,6-diamine], the Ki is reported as 9 nM. Compound `O=C(Nc1ccc(F)cc1)Nc1ccc2nc(N[C@@H]3CCc4ccccc43)ccc2c1` [Example 19, 1-(4-Fluoro-phenyl)-3-[2-((R)-indan-1-ylamino)-quinolin-6-yl]-urea] has a Ki of 6.5 nM. With `O=C(Nc1cccc(F)c1)Nc1ccc2nc(N[C@@H]3CCc4ccccc43)ccc2c1` [Example 20, 1-(3-Fluoro-phenyl)-3-[2-((R)-indan-1-ylamino)-quinolin-6-yl]-urea] the Ki was 7.8 nM. With `COc1ccc(NC(=O)Nc2ccc3nc(N[C@@H]4CCc5ccccc54)ccc3c2)cc1` [Example 21, 1-[2-((R)-Indan-1-ylamino)-quinolin-6-yl]-3-(4-methoxy-phenyl)-urea] the Ki was 6.3 nM. `COc1cccc(NC(=O)Nc2ccc3nc(N[C@@H]4CCc5ccccc54)ccc3c2)c1` [Example 22, 1-[2-((R)-Indan-1-ylamino)-quinolin-6-yl]-3-(3-methoxy-phenyl)-urea] showed a Ki of 21.9 nM. Compound `COc1ccccc1NC(=O)Nc1ccc2nc(N[C@@H]3CCc4ccccc43)ccc2c1` [Example 23, 1-[2-((R)-Indan-1-ylamino)-quinolin-6-yl]-3-(2-methoxy-phenyl)-urea] has a Ki of 25.6 nM. With `O=C(Nc1ccc2nc(N[C@@H]3CCc4ccccc43)ccc2c1)Nc1ccccc1F` [Example 25, 1-(2-Fluoro-phenyl)-3-[2-((R)-indan-1-ylamino)-quinolin-6-yl]-urea] the Ki was 4.2 nM. With `C[C@@H](NC(=O)Nc1ccc2nc(N[C@@H]3CCc4ccccc43)ccc2c1)c1ccccc1` [Example 27, 1-[2-((R)-Indan-1-ylamino)-quinolin-6-yl]-3-((R)-1-phenyl-ethyl)-urea] the Ki was 9.8 nM. Compound `C[C@H](NC(=O)Nc1ccc2nc(N[C@@H]3CCc4ccccc43)ccc2c1)c1ccccc1` [Example 28, 1-[2-((R)-Indan-1-ylamino)-quinolin-6-yl]-3-((S)-1-phenyl-ethyl)-urea] has a Ki of 36.7 nM. `COc1ccc(CNC(=O)Nc2ccc3nc(N[C@@H]4CCc5ccccc54)ccc3c2)cc1` [Example 29, 1-[2-((R)-Indan-1-ylamino)-quinolin-6-yl]-3-(4-methoxy-benzyl)-urea] showed a Ki of 16.5 nM. Work on `O=C(Nc1ccc(Cl)nc1)Nc1ccc2nc(N[C@@H]3CCc4ccccc43)ccc2c1` [Example 31, 1-(6-Chloro-pyridin-3-yl)-3-[2-((R)-indan-1-ylamino)-quinolin-6-yl]-urea] yielded a Ki of 16.4 nM. `O=C(Nc1ccnc(Cl)c1)Nc1ccc2nc(N[C@@H]3CCc4ccccc43)ccc2c1` [Example 33, 1-(2-Chloro-pyridin-4-yl)-3-[2-((R)-indan-1-ylamino)-quinolin-6-yl]-urea] was tested, and the Ki was 18.2 nM. `CN(c1ccc(Cl)cc1)S(=O)(=O)Nc1ccc2nc(N[C@@H]3CCc4ccccc43)ccc2c1` [Example 40, N-(4-chlorophenyl)-N′-{2-[(1R)-2,3-dihydro-1H-inden-1-ylamino]quinolin-6-yl}-N-methylsulfamide] was tested, and the Ki was 29.6 nM. In the case of `CN(c1ccc(F)cc1)S(=O)(=O)Nc1ccc2nc(N[C@@H]3CCc4ccccc43)ccc2c1` [Example 41, N′-{2-[(1R)-2,3-dihydro-1H-inden-1-ylamino]quinolin-6-yl}-N-(4-fluorophenyl)-N-methylsulfamide], the Ki is reported as 25.8 nM. With `Cc1noc(C)c1NC(=O)Nc1ccc2nc(N[C@@H]3CCc4ccccc43)ccc2c1` [Example 42, 1-(3,5-Dimethyl-isoxazol-4-yl)-3-[2-((R)-indan-1-ylamino)-quinolin-6-yl]-urea] the Ki was 25.8 nM. In the case of `Cn1cncc1CNC(=O)Nc1ccc2nc(N[C@@H]3CCc4ccccc43)ccc2c1` [Example 45, 1-[2-((R)-Indan-1-ylamino)-quinolin-6-yl]-3-(3-methyl-3H-imidazol-4-ylmethyl)-urea], the Ki is reported as 10.6 nM. With `O=C(Nc1ccc2nc(N[C@@H]3CCc4ccccc43)ccc2c1)c1ccc(F)cc1` [Example 50, 4-Fluoro-N-[2-((R)-indan-1-ylamino)-quinolin-6-yl]-benzamide] the Ki was 72.5 nM. For `O=C(NCc1ccc2nc(N[C@@H]3CCc4ccccc43)ccc2c1)c1ccc(F)cc1` [Example 54, 4-Fluoro-N-[2-((R)-indan-1-ylamino)-quinolin-6-ylmethyl]-benzamide], the Ki was 141 nM. Work on `Cn1nccc1NC(=O)Nc1ccc2nc(N[C@@H]3CCc4ccccc43)ccc2c1` [Example 58, 1-[2-((R)-Indan-1-ylamino)-quinolin-6-yl]-3-(2-methyl-2H-pyrazol-3-yl)-urea] yielded a Ki of 20.3 nM. In the case of `c1ccc2c(c1)CC[C@H]2Nc1ccc2cc(-n3ccnc3)ccc2n1` [Example 61, (6-Imidazol-1-yl-quinolin-2-yl)-(R)-indan-1-yl-amine], the Ki is reported as 422 nM. Work on `O=C(NC(=S)Nc1ccc2nc(N[C@@H]3CCc4ccccc43)ccc2c1)c1ccccc1` [Example 63, 1-Benzoyl-3-[2-((R)-indan-1-ylamino)-quinolin-6-yl]-thiourea] yielded a Ki of 390 nM. Work on `Fc1ccc(CNCc2ccc3nc(N[C@@H]4CCc5ccccc54)ccc3c2)cc1` [Example 64, {6-[(4-Fluoro-benzylamino)-methyl]-quinolin-2-yl}-(R)-indan-1-yl-amine] yielded a Ki of 348 nM. For `FC(F)(F)c1cccc(Nc2ccc3nc(N[C@@H]4CCc5ccccc54)ccc3c2)n1` [Example 80, N^2—(R)-Indan-1-yl-N^6-(6-trifluoromethyl-pyridin-2-yl)-quinoline-2,6-diamine], the Ki was 24.1 nM.
